In patent US8637266B2, “Anti bone-loss and anti attachment-loss effects of an oral composition” (Colgate-Palmolive Company, priority 2009, dated 2014):

Key:
[1] = tested on: MMP-13; test: PTH-induced MMP-13 expression in UMR 106-01 osteoblast cells (real time quantitative RT-PCR); assay type: cell-based, Rat
Protocol: Parathyroid hormone (rat PTH 1-34) was purchased from Sigma. UMR 106-01 cells were cultured in Eagle's minimal essential medium (EMEM) supplemented with 25 mM Hepes pH 7.4, 1% nonessential amino acids, 100 units/rill penicillin, 100 μg/ml streptomycin. 5% fetal bovine serum. Real Time Quantitative RT-PCR was conducted according to the following method: UMR 106-01 cells were seeded in 12-well plates and cultured for 2-3 days in cell culture media. When cells were confluent, cell culture media was exchanged with 1% fetal bovine serum for overnight for cell starvation. Cells were pre-incubated with triclosan or a triclosan-containing dentifrice (see. e.g., U.S. Pat. Nos. 4,894,220, 5,032,386, and related patents) for 15 min and then incubated with PTH (10^−8 M) for 4 hours.
Total RNA was isolated from UMR 106-01 cells stimulated with or without PTH with TRIzol reagent. Total RNA (0.1 μg) was reverse-transcribed to cDNA using the Invitrogen SUPERSCRIPT kit according to the manufacturer's instructions. All cDNAs were amplified by adding 2.5 μl of cDNA to the PCR mixture (22.5 μl) containing each primer (0.2 μM) and 12.5 μl of the Platinum SYBR Green qPCR SuperMix UDG (Invitrogen). The reactions were preincubated at 50° C. for 2 minutes to decontaminate dU-containing DNA by UDG, then at 95° C. for 2 minutes to inactivate UDG and activate Taq. The PCR program continued 49 cycles of denaturation at 95° C. for 15 seconds, annealing and elongation of the primers at 60° C. for 30 seconds. Relative quantification of gene expression was determined by using the 2-delta delta CT method where fold changes in gene expression are relative to control samples. All samples were normalized to β-actin.
All results were expressed as means±standard error (S.E.) of triplicate measurements with all experiments being repeated at least three times. Statistical analyses were carried out using the Student's t test.

[2] = tested on: MMP-9; test: TNFα-induced MMP-9 production of U937 monocytes (ELISA of conditioned media); assay type: cell-based, Human; conditions: for MMP-9 production, Average: U937 cells, 24 hours, conditioned media ELISA
Protocol: U937 cells and RPMI 1640 culture medium were obtained from ATCC. Human MMP-9 ELISA Kit (QUANTIKINE) was obtained from R&D Systems. Fetal Bovine Serum (FBS) was obtained from VWR, and the penicillin-streptomycin solution and Tumor Necrosis Factor α (TNFα) were obtained from Sigma.
Human leukemia U937 monocyte lymphoma cells were cultured in RPMI 1640 medium supplemented with 10% FBS and 1% Penicillin-Streptomycin solution. Cells were incubated at 37° C. in a humidified atmosphere containing 5% CO2 and 95% air. Before treatment, cells were transferred into RPMI containing 1% FBS for overnight. Cells were plated on a 48 well plate. Cell culture medium included either TNFα (250 ng/mL), Triclosan(1 ppm), or both agents together or no agent (control). Cells were incubated after treatment for 24 hours. Conditioned media were collected and store at −80° C. until analysis. Samples of conditioned media were subjected to enzyme-linked immunosorbent assays (ELISA) for MMP-9, according to commercial ELISA protocol (FIG. 1).

[3] = with PEG 600, weight ratio of 25 triclosan:1 PEG 600, versus absence of polyethylene glycol; cited from earlier work

| Compound | MMP-13 expression, Average (fold change relative to control, normalized to β-actin) ([1]; Triclosan 1 ppm + PTH 10^−8 M, 15 min pre-incubation, 4 hours) | MMP-13 expression, Average (fold change relative to control, normalized to β-actin) ([1]; Triclosan 1 ppm, without PTH) | MMP-13 expression, Average (fold change relative to control, normalized to β-actin) ([1]; Triclosan 4 ppm + PTH 10^−8 M, 15 min pre-incubation, 4 hours) | MMP-13 expression, Average (fold change relative to control, normalized to β-actin) ([1]; Triclosan 4 ppm, without PTH) | MMP-13 expression, Average (fold change relative to control, normalized to β-actin) ([1]; Triclosan 10 ppm + PTH 10^−8 M, 15 min pre-incubation, 4 hours) | MMP-13 expression, Average (fold change relative to control, normalized to β-actin) ([1]; Triclosan 10 ppm, without PTH) | effect on MMP-13 expression in PTH stimulated UMR cells ([1]; Triclosan at 10 ppm, 4 ppm and 1 ppm) | effect on MMP-9 level in TNFα stimulated U937 cells ([2]; Triclosan at 1 ppm) | MMP-9 production, Average ([2]; TNFα 250 ng/mL + Triclosan 1 ppm) | factor by which antibacterial activity is reduced [3] | MMP-9 production, Average ([2]; TNFα 250 ng/mL alone) |
| --- | --- | --- | --- | --- | --- | --- | --- | --- | --- | --- | --- |
| Oc1cc(Cl)ccc1Oc1ccc(Cl)cc1Cl [Triclosan, 2,4,4′-trichloro-2′-hydroxydiphenyl ether] | 35.38 | 0.4166 | 10.56 | 1.424 | 3.012 | 1.518 | significantly reduced | significantly reduced | 0.155 ng/mL | 10-20 |  |
| TNFα |  |  |  |  |  |  |  |  |  |  | 0.275 ng/mL |
